Source: ChEMBL document CHEMBL1201862, “PubChem BioAssay data set” (2004)
Calls of active or inactive are those of the source.

Legend:
[1] = M. tuberculosis H37Rv growth inhibitors, H37Rv strain (AID 1626); format: functional
[2] = target: Trypsin (Sus scrofa, UniProt P00761); experiment: trypsin protease activity blockade – biochemical, quenched peptide fluorescence, cherry-pick, selectivity assay for Rce1 protease inhibitor project, dose response (AID 488789)
[3] = target: T1, CAAX prenyl protease 2 (Saccharomyces cerevisiae S288c, UniProt Q03530); format: biochemical
T1 sequence (Q03530 whole entry): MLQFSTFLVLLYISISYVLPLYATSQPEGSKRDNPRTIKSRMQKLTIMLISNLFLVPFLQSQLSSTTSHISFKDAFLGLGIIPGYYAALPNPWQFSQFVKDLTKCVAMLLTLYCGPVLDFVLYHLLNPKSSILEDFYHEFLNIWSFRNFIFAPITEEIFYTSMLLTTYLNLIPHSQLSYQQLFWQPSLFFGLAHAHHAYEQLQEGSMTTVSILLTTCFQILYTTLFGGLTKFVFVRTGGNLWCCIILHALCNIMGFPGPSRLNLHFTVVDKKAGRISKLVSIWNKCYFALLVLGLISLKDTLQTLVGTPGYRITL

[4] = target: T2, Short transient receptor potential channel 4 (Mus musculus, UniProt Q9QUQ5); experiment: block of DAMGO-driven TRPC4 calcium entry – cell-based, HEK293 TRPC4/mu-opioid, Fluo-4 calcium, dose response (AID 434942); format: functional;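 also: potency of inhibitors blocking the TRPC4 calcium response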
T2 sequence (Q9QUQ5 whole entry): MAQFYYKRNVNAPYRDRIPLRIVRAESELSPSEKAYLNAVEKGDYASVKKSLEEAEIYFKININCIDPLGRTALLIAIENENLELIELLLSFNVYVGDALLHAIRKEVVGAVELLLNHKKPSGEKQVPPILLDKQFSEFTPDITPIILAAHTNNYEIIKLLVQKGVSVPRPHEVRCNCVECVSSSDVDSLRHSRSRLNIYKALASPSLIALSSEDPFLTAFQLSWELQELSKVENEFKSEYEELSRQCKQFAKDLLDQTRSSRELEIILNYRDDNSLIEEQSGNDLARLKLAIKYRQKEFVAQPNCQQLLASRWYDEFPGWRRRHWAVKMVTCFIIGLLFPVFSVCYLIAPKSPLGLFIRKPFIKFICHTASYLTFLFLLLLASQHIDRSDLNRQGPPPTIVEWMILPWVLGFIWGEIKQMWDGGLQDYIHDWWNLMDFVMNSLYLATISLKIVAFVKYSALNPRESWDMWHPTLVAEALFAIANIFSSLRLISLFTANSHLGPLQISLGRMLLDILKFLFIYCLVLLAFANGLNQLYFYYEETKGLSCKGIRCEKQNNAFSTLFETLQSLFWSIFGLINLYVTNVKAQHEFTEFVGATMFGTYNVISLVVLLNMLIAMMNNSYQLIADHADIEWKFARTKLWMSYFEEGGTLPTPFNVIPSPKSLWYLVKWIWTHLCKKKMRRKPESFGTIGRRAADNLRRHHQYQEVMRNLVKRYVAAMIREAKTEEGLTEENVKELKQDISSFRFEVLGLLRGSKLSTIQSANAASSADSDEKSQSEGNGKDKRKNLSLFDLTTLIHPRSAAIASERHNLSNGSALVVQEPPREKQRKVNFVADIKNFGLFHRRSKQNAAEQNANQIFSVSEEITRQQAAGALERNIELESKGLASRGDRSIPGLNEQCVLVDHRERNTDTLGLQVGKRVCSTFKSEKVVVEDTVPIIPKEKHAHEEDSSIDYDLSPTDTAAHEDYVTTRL

[5] = viability of uninfected HEp-2 cells – cell-based, HTS, cytotoxicity control for RSV inhibitor project, dose response (AID 2410); format: functional; details: human respiratory syncytial virus
[6] = target: DNA dC->dU-editing enzyme APOBEC-3A (Homo sapiens, UniProt P31941); experiment: A3A deaminase inhibition for selectivity – biochemical, dose response (AID 504722); format: functional
Sequence of DNA dC->dU-editing enzyme APOBEC-3A (P31941 whole entry): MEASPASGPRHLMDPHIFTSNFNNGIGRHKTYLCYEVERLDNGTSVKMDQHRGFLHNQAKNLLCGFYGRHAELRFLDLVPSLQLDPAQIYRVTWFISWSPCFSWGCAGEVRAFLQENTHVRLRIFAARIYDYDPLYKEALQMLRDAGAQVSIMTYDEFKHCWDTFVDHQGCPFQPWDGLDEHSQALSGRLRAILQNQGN

[7] = target: DNA dC->dU-editing enzyme APOBEC-3G (Homo sapiens, UniProt Q9HC16); experiment: Dose Response confirmation of small molecule APOBEC3G DNA Deaminase Inhibitors via a fluorescence-based single-stranded DNA deaminase assay. [Related pubchem assays (depositor defined):AID493012, AID493028]; format: functional
Sequence of DNA dC->dU-editing enzyme APOBEC-3G (Q9HC16 whole entry): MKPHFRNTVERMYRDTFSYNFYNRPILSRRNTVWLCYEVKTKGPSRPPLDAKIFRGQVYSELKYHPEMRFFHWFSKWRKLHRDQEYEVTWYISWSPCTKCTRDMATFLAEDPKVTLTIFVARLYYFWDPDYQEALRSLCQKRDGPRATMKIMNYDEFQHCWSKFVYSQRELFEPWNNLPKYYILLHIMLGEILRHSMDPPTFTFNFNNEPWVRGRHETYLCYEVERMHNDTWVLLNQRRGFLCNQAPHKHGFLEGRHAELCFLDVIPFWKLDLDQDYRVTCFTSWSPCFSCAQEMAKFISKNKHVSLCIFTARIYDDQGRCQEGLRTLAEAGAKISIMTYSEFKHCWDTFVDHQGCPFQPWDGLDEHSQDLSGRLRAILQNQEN

[8] = target: T3, Rac GTPase-activating protein 1 (Homo sapiens, UniProt Q9H0H5); experiment: blockers of MgcRacGAP-driven Rac1 GTP hydrolysis – biochemical, ADP Hunter fluorescence, primary and confirmatory, confirmation (AID 624330); format: functional
T3 sequence (Q9H0H5 whole entry): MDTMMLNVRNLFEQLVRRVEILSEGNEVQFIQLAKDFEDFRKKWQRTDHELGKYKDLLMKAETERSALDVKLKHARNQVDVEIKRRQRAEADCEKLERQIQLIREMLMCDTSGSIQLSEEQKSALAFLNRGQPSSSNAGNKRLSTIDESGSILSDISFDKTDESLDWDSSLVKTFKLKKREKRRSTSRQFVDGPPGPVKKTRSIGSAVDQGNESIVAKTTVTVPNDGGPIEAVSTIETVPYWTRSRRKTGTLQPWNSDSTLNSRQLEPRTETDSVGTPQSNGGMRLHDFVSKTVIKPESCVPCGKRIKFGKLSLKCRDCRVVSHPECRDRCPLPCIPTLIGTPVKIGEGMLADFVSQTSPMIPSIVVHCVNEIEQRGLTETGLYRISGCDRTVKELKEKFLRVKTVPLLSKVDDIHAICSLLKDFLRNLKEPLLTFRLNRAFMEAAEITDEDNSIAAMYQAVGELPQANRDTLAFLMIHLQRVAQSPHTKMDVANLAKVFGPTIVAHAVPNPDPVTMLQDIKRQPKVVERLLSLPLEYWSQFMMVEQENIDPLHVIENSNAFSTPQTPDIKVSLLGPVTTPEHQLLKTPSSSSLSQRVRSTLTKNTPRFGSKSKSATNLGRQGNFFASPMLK

[9] = target: T4, Estrogen receptor (Homo sapiens, UniProt P03372);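 also: potency for inhibiting coactivator peptide recruitment to the receptor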
T4 sequence (P03372 whole entry): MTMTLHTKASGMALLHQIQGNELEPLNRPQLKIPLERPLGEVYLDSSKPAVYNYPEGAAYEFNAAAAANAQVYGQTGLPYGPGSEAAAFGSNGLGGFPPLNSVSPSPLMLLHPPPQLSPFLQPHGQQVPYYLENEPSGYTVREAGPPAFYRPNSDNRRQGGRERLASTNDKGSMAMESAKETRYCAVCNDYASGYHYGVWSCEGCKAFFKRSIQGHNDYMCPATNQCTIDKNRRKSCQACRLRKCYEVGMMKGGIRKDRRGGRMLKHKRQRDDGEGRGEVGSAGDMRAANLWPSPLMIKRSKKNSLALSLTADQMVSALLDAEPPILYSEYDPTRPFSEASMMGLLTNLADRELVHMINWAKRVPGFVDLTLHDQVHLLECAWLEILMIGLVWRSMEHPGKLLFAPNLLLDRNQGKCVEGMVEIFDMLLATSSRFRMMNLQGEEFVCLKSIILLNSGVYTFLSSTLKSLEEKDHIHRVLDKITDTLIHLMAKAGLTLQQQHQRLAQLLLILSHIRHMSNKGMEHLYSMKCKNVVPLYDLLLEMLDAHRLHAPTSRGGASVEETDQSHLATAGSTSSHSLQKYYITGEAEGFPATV

[10] = target: T5, Carboxy-terminal domain RNA polymerase II polypeptide A small phosphatase 1 (Homo sapiens, UniProt Q9GZU7); experiment: CTDSP1 inhibitors, concentration-response, biochemical, absorbance readout, ultra-high-throughput screen actives (AID 540297); format: functional
T5 sequence (Q9GZU7 whole entry): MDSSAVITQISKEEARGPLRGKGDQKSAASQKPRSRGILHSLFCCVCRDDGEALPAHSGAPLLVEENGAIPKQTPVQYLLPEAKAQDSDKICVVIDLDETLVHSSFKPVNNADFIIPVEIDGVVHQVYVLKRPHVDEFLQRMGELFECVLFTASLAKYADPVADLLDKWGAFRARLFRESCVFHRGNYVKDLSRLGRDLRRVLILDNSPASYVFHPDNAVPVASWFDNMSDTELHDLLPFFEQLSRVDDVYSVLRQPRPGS

[11] = target: SUMO-activating enzyme (Homo sapiens, UniProt Q9UBT2); experiment: blockers of UBC9-mediated SUMO conjugation – biochemical, AlphaScreen, SUMOylation inhibitor project, confirmation (AID 2018); format: functional
Sequence of SUMO-activating enzyme (Q9UBE0 whole entry): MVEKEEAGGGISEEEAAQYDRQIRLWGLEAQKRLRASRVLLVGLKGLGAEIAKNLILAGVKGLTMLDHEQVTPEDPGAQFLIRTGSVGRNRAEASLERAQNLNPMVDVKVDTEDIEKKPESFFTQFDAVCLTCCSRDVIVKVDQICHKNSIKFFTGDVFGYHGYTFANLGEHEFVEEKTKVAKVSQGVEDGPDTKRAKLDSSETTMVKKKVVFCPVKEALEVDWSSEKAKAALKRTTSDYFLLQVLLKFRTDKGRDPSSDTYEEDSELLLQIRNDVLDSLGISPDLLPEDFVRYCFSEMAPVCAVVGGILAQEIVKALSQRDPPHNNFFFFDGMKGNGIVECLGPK
Sequence of SUMO-activating enzyme (Q9UBT2 whole entry): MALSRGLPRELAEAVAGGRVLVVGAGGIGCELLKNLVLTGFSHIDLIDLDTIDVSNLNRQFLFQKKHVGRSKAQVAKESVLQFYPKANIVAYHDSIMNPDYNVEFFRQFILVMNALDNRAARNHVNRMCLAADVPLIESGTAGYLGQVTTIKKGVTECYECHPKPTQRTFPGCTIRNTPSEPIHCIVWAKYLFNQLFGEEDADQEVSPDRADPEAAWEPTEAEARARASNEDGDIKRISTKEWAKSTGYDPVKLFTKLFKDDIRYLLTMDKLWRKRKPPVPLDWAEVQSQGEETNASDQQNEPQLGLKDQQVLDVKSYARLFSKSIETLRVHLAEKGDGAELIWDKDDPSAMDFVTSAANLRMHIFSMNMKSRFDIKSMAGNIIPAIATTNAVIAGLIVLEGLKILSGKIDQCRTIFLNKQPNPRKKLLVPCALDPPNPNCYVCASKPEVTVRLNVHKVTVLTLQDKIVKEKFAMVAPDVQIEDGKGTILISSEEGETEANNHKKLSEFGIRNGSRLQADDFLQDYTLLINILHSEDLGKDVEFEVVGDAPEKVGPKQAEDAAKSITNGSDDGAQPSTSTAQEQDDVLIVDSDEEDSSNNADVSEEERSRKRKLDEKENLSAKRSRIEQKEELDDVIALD

[12] = Trypanosoma cruzi growth suppression in host cells – NIH3T3 host cells, beta-gal luminescence, confirmation (AID 2044); format: functional, cell-based;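 also: intracellular parasites grown in NIH/3T3 mouse fibroblasts as host cells; luminescent beta-galactosidase reporter signal from transgenic T. cruzi replicating inside host cells; inhibitors lower the luminescence signal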
[13] = NIH3T3 cell viability loss – ATP luminescence, mouse fibroblasts, counter-screen, dose response (AID 2010); format: functional, cell-based;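 also: cells exposed to compound for about 90 hours before reading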
[14] = cells
[15] = HEK-293T viability loss after treatment – luminescence, T-cell screen hits, cytotoxicity control for TCR NF-kB inhibitor project, dose response (AID 489026); format: functional, cell-based;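 also: cells exposed to compound about 14 hours before the viability readout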
[16] = tested on: Streptococcus; experiment: GAS UMAA2166 growth inhibition – luminescence, BacTiterGlo, counter-screen for streptokinase expression inhibitor project, dose response (AID 1915); format: functional, organism-based;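 also: potency for reduction of bacterial viability or growth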
[17] = Vero E6 cell cytotoxicity, dose response, cytotoxicity control for non-replicating M. tuberculosis project, secondary assay (AID 492998); format: functional, VeroE6; details: Vero C1008
[18] = tested on: Streptococcus sp. 'group A'; experiment: Streptococcus pyogenes SK(-)GAS viability under kanamycin – luminescence, BacTiterGlo, confirmation, counter-screen for streptokinase expression inhibitor project, dose response (AID 1900); format: functional, organism-based
[19] = target: T6, Streptokinase A (Streptococcus pyogenes serotype M1, UniProt P10520); experiment: viability-normalized secreted streptokinase activity reduction – plasminogen activation absorbance, OD405, dose response (AID 1914); format: functional, Streptococcus pyogenes M1 GAS;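 also: secreted streptokinase activity via plasminogen activation per viability signal from cell pellet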
T6 sequence (P10520 whole entry): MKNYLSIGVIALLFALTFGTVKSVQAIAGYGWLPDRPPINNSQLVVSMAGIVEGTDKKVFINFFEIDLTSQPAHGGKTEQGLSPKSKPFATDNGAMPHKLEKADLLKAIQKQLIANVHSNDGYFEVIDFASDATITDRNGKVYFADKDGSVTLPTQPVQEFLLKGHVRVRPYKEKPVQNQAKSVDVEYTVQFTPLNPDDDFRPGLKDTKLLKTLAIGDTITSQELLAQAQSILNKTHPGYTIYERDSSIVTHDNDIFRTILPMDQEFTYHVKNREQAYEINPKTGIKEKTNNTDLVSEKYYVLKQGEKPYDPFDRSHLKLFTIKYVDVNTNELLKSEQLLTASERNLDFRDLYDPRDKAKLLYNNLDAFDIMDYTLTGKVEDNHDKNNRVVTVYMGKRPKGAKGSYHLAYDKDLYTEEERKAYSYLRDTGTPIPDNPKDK

[20] = THP-1 cell cytotoxicity, dose response, cytotoxicity control for non-replicating M. tuberculosis project (AID 489025); format: functional
[21] = cells; format: functional

Sequence of Trypsin (P00761 whole entry): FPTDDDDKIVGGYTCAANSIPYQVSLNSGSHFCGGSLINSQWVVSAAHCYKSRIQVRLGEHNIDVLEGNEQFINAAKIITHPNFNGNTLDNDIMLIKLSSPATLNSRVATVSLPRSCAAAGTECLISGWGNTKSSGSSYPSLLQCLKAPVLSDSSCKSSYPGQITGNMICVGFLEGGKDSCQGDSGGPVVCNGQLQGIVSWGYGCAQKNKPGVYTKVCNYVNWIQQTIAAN

## CCOc1ccc(NC2C=CS(=O)(=O)C2)cc1 (centres undefined)
[1]
  IC50: > 100 µM (active)

## Cc1c(Cc2ccccc2)c(=O)oc2c(C)c(OCC(=O)N3CCC(C(=O)O)CC3)ccc12
[2]
  AC50: 9.51 µM (active)
[3]
  AC50: 10.7 µM (active)

## Cc1cc(O)nc(SCC(=O)C23CC4CC(CC(C4)C2)C3)c1C#N
[1]
  IC50: > 100 µM (active)

## CC(C)(C)C1CCc2c(sc(NC(=O)CSc3nnc(-c4ccccc4)o3)c2C#N)C1 (centres undefined)
[1]
  IC50: > 100 µM (active)

## Clc1cccc(COn2c(-c3ccc(Cl)cc3Cl)nc3ncccc32)c1
[4]
  EC50: 5.96 µM (active)
[5]
  CC50: 14.4 µM (active)

## O=C(CN1C(=O)C2C3CCC(C3)C2C1=O)Oc1ccc2ccccc2c1 (centres undefined)
[1]
  IC50: > 100 µM (active)

## COC(=O)Cc1ccc(NC(=O)c2ccc(Br)o2)cc1
[1]
  IC50: > 100 µM (active)

## Cc1cc(-c2nnc(S)n2/N=C/c2sccc2C)[nH]n1
[6]
  IC50: > 100 µM (inactive)
[7]
  IC50: 2.44 µM (active)
[8]
  IC50: 74.9 µM (active)

## O=C(Nc1ccc2nn(-c3ccccc3)nc2c1)c1ccc(Br)o1
[9]
  IC50: > 50 µM (not active)
[10]
  IC50: 3.62 µM (active)

## CC(NC(=O)OC(C)(C)C)C(=O)Oc1ccc2ccc(=O)oc2c1 (centres undefined)
[11]
  IC50: > 100 µM (inactive)

## CCOC(=O)c1sc2c(c1C)c(=O)n(Cc1ccccc1)c(=O)n2CCN(C)C
[12]
  EC50: < 0.1 µM (active)
[13]
  EC50: > 60 µM (not active)
[14]
  EC50: 0.062 µM (active)

## Sc1nnc(COc2ccccc2)n1/N=C/c1ccco1
[6]
  IC50: > 100 µM (inactive)
[7]
  IC50: 3.38 µM (active)

## CCOc1ccc(S(=O)(=O)NCc2ccccn2)cc1NC(=O)c1ccccc1
[15]
  IC50: > 80 µM (inactive)

## COc1ccc2sc(N(CCCN(C)C)C(=O)c3ccc(S(=O)(=O)N(C)C4CCCCC4)cc3)nc2c1
[12]
  EC50: < 0.1 µM (active)
[13]
  EC50: > 60 µM (not active)
[14]
  EC50: 0.393 µM (active)

## CC(OC(=O)CNC(=O)c1ccccc1F)C(=O)Nc1nc(-c2ccccc2)cs1 (centres undefined)
[4]
  EC50: 1.5 µM (active)

## CCOc1cccc(CNCCO)c1OCc1ccc(Cl)cc1
[4]
  EC50: 1.88 µM (active)

## CCN(CC)c1ccc(CN(C)CCc2ccc(OC)c(OC)c2)cc1
[12]
  EC50: < 0.1 µM (active)
[13]
  EC50: > 60 µM (not active)
[14]
  EC50: < 0.004 µM (active)

## COC(=O)C1=C(C)N(Cc2ccccc2)C(=S)N[C@H]1c1ccccc1
[4]
  EC50: 5.96 µM (active)

## COc1ccc(-c2nc(CC(=O)O)cs2)cc1OC
[2]
  AC50: 6.53 µM (active)
[3]
  AC50: 29.7 µM (active)

## Nc1c(C(=O)Nc2ccc(Br)cc2)sc2nc(-c3ccco3)ccc12
[11]
  IC50: 22.8 µM (active)

## Cc1ccc(CNC(=O)c2ccc([N+](=O)[O-])o2)cc1
[16]
  EC50: 32.1 µM (active)
[17]
  CC50: 5.6 µM (active)
[18]
  EC50: 2.42 µM (active)
[19]
  EC50: 8.63 µM (active)
[20]
  CC50: 25.5 µM (active)
[21]
  IC50: 0.16 µM (active)

## Cc1cc(-c2nnc(S)n2-c2ccc(F)cc2)nn1C
[6]
  IC50: > 100 µM (inactive)
[7]
  IC50: 16.2 µM (active)

## C=CCn1c(-c2ccc([N+](=O)[O-])cc2)n[nH]c1=S
[6]
  IC50: > 100 µM (inactive)
[7]
  IC50: 4.51 µM (active)

## CCOC(=O)c1ccccc1NS(=O)(=O)c1ccc(OCC)cc1
[15]
  IC50: > 80 µM (inactive)
